The text below walks through data of US12325681B2, “Inhibitors of nitric oxide synthases (NOS), pharmaceutical products thereof, and methods thereof” (Gacter Inc., priority 2022, dated 2025).

Molecules are shown by their SMILES. Where a name gives a salt, the structure may show the parent alone.

Assay [1] concerns the target T1, iNOS (Homo sapiens, UniProt P35228). Put plainly: abcam NOS Inhibitor Screening Kit, IC50 (fluorescence). As to conditions: abcam NOS Inhibitor Screening Kit. Further details: IC50; IC50. The assay is classed as biochemical. How it is done: (§1) The IC50 of some compounds of the invention was determined using the abcam NOS Inhibitor Screening Kit. The procedure includes the following steps: (1) Dissolved a test compound to 10 mM in DMSO; (2) Diluted the test compound to 1 mM in NOS Assay Buffer; (3) Diluted 1 mM of the test compound stocks to 200 μM, 50 μM, 12.5 μM, 3.125 μM, 0.781 μM, and 0.195 μM in NOS Assay Buffer; (4) Diluted 1 mM DPI Control to 50.0 μM, 12.5 μM, 3.125 μM, 0.781 μM, 0.195 μM, and 0.0488 μM in NOS Assay Buffer; (5) Diluted NOS enzyme with 400 μL of NOS Assay Buffer; (6) Combined Diluted NOS Enzyme with 1.6 mL of NOS Assay buffer then transferred 20 μL of enzyme solution to all wells of 96-well Fluorescence plate except background wells. Added 20 μL of NOS Assay buffer to background wells. (7) Transferred 10 uL of each test compound dilution to the enzyme buffer mix according to the plate map (see addendum for plate map and raw data values). (8) Incubated 15 minutes at room temperature. (9) Added 11 μL of NOS reaction mix (according to manufacturer's protocol) to each well, mixed, and incubated at 37° C. for 1 hour. (10) Added 110 μL of NOS Assay Buffer to each well followed by 5 μL of Enhancer to each well, mixed, and incubated 10 minutes at room temperature; (11) Added 10 μL of Probe to each well, mixed, and incubated 10 minutes at room temperature; and (12) Added 5 μL of NaOH to each well, mixed, and incubated 10 minutes at room temperature. Measure Fluorescence at 360 nm excitation/450 nm emission.

The target of assay [2] is T1, iNOS. The assay is described as above. The assay is classed as biochemical. Further details: Fold (GT-xxxx)/AZ 6b. The following applies: ratio of IC50 to AZ 6b IC50 (0.0488 μM). How it is done: as §1

For `N#Cc1ccc(Cl)cc1C(=O)N(CCNCCO)c1ccccc1` [GT-7009, 5-chloro-2-cyano-N-(2-((2-hydroxyethyl)amino)ethyl)-N-phenylbenzamide], the IC50 against iNOS [1] (Table C-1) and on iNOS [1] (Table C-2) was 0.148 µM in each case. Further, the “Fold (GT-xxxx)/AZ 6b” value on iNOS [2] is 3.03.

`N#Cc1ccc(Cl)cc1CN(CCNC1CCC(O)CC1)c1ccccc1` (single isomer, unassigned) [GT-7024, 4-chloro-2-(((2-((4-hydroxycyclohexyl)amino)ethyl)(phenyl)amino)methyl) benzonitrile]: the half-maximal inhibitory concentration (IC50) – broadly, the concentration that gives 50% inhibition – against iNOS [1] (Table C-1) was 14.4 µM.

For the compound `Cl.N#Cc1ccc(Cl)cc1CN(CCN)c1ccccc1` [GT-7003, 2-(((2-aminoethyl)(phenyl)amino)methyl)-4-chlorobenzonitrile hydrochloride], the IC50 on iNOS [1] (Table C-1) and against iNOS [1] (Table C-2) was 0.064 µM each time. For the same compound, the “Fold (GT-xxxx)/AZ 6b” value on iNOS [2] is 1.31.

At iNOS [1] (Table C-1), `N#Cc1ccc(Cl)cc1CN(CCNC1CCC(O)CC1)c1ccccc1` (single isomer, unassigned) [GT-7023, 4-chloro-2-(((2-((4-hydroxycyclohexyl)amino)ethyl)(phenyl)amino)methyl) benzonitrile] registered an IC50 of 10.5 µM.

The compound `Cc1ccc(C#N)c(O[C@H](CCNCCc2c[nH]cn2)c2ccccc2)n1` [GT-5023, (R)-2-(3-((2-(1H-imidazol-4-yl)ethyl)amino)-1-phenylpropoxy)-6-methylnicotinonitrile] gave an IC50 against iNOS [1] (Table C-1) of 5.43 µM.

As for `N#Cc1ccc(Cl)cc1OC(CCN1C(=O)c2ccccc2C1=O)c1ccn2ccnc2c1` (stereo not shown) [GT-6065, 4-chloro-2-(3-(1,3-dioxoisoindolin-2-yl)-1-(imidazo[1,2-a]pyridin-7-yl)propoxy)benzonitrile], the half-maximal inhibitory concentration (IC50) at iNOS [1] (Table C-1) and against iNOS [1] (Table C-2) was 0.0678 µM in each case. Also, the “Fold (GT-xxxx)/AZ 6b” value on iNOS [2] worked out at 1.39.

In the case of `Cc1ccc(C#N)c(O[C@H](CCNC[C@H](O)CO)c2ccccc2)n1` [GT-5024, 2-((R)-3-(((S)-2,3-dihydroxypropyl)amino)-1-phenylpropoxy)-6-methylnicotinonitrile], on iNOS [1] (Table C-1), the IC50 turned out to be 2.34 µM.

The compound `Cc1ccc(C#N)c(O[C@H](CCNCCCO)c2ccccc2)n1` [GT-5015] returned an IC50 against iNOS [1] (Table C-1) of 1.74 µM.

Take `CNCC[C@@H](Oc1cc(Cl)cc2[nH]cnc12)c1ccccc1` [GT-6058, (R)-3-((6-chloro-1H-benzo[d]imidazol-4-yl)oxy)-N-methyl-3-phenylpropan-1-amine]: the IC50 at iNOS [1] (Table C-1) and against iNOS [1] (Table C-2) was 0.457 µM each time. At iNOS [2], the “Fold (GT-xxxx)/AZ 6b” value was determined as 9.36.

Consider `N#Cc1ccc(Cl)cc1CN(CCN)c1ccccc1Cl` [GT-7004, 2-(((2-aminoethyl)(2-chlorophenyl)amino)methyl)-4-chlorobenzonitrile hydrochloride], for which, at iNOS [1] (Table C-1), it took 5.79 µM to reach half-maximal inhibition (IC50).

In turn, `N#Cc1ccc(Cl)cc1CN(CCNCC1CC1)c1ccccc1` [GT-7020, 4-chloro-2-(((2-((cyclopropylmethyl)amino)ethyl)(phenyl)amino)methyl) benzonitrile] came in with an IC50 at iNOS [1] (Table C-1) of 15.5 µM.

In the case of `N#Cc1ccc(Cl)cc1C(=O)N(CCN)c1ccccc1Cl` [GT-7002, N-(2-aminoethyl)-5-chloro-N-(2-chlorophenyl)-2-cyanobenzamide], the concentration for half-maximal inhibition (IC50) at iNOS [1] (Table C-1) and against iNOS [1] (Table C-2) was 0.112 µM each time. The “Fold (GT-xxxx)/AZ 6b” value at iNOS [2] was determined as 2.30.

For the compound `O=C1c2ccccc2C(=O)N1CC[C@@H](Oc1cc(Cl)cc2[nH]ncc12)c1ccccc1` [GT-6066, (R)-2-(3-((6-chloro-1H-indazol-4-yl)oxy)-3-phenylpropyl)isoindoline-1,3-dione], the IC50 against iNOS [1] (Table C-1) and on iNOS [1] (Table C-2) was 0.27 µM in each case. At iNOS [2], the “Fold (GT-xxxx)/AZ 6b” value is reported as 5.53.

For the compound `N#Cc1ccc(Cl)cc1OC(CCN)c1ccnc(N)c1` (stereo not shown) [GT-6064, 2-(3-amino-1-(2-aminopyridin-4-yl)propoxy)-4-chlorobenzonitrile], the IC50 against iNOS [1] (Table C-1) and against iNOS [1] (Table C-2) was 0.0285 µM throughout. Moreover, the “Fold (GT-xxxx)/AZ 6b” value at iNOS [2] is recorded as 0.58.

Compound `Cc1ccc(C#N)c(O[C@H](CCNCCN2CCOCC2)c2ccccc2)n1` [GT-5020, (R)-6-methyl-2-(3-((2-morpholinoethyl)amino)-1-phenylpropoxy)nicotinonitrile] showed a concentration for half-maximal inhibition (IC50) on iNOS [1] (Table C-1) of 7.29 µM.

With `NCCN(Cc1cc(Cl)ccc1Br)c1ccccc1` [GT-7006, N1-(2-bromo-5-chlorobenzyl)-N1-phenylethane-1,2-diamine], it took 157 µM to reach half-maximal inhibition at iNOS [1] (Table C-1) (IC50).

Compound `CNCC[C@@H](Oc1nc(C)ccc1C#N)c1ccccc1` [GT-5002, (R)-6-methyl-2-(3-(methylamino)-1-phenylpropoxy)nicotinonitrile] yielded an IC50 on iNOS [1] (Table C-1) of 1.35 µM.

Compound `CNCC[C@@H](Oc1nc(C(F)(F)F)ccc1C#N)c1ccccc1` [GT-5013, (R)-2-(3-(methylamino)-1-phenylpropoxy)-6-(trifluoromethyl) nicotinonitrile] gave a 50% inhibitory concentration (IC50) on iNOS [1] (Table C-1) of 23.3 µM.

On iNOS [1] (Table C-1), `N#Cc1ccc(Cl)cc1CN(CCNC(CO)CO)c1ccccc1` [GT-7018, 4-chloro-2-(((2-((1,3-dihydroxypropan-2-yl)amino)ethyl)(phenyl)amino)methyl)benzonitrile] came in with an IC50 of 20.3 µM.

In the case of `CNCC[C@@H](Oc1nc(C)ccc1Br)c1ccccc1` [GT-5012, (R)-3-((3-bromo-6-methylpyridin-2-yl)oxy)-N-methyl-3-phenylpropan-1-amine], on iNOS [1] (Table C-1), the 50% inhibitory concentration (IC50) is 12600 µM.

Turning to `CNCC[C@@H](Oc1cc(Cl)cc2[nH]ncc12)c1ccccc1` [GT-6059, (R)-3-((6-chloro-1H-indazol-4-yl)oxy)-N-methyl-3-phenylpropan-1-amine], the half-inhibitory concentration (IC50) at iNOS [1] (Table C-1) and against iNOS [1] (Table C-2) was 0.252 µM each time. On iNOS [2], the “Fold (GT-xxxx)/AZ 6b” value was found to be 5.16.

On iNOS [1] (Table C-1), `N#Cc1ccc(Cl)cc1CN(CCNCCO)c1ccccc1` [GT-7010, 4-chloro-2-(((2-((2-hydroxyethyl)amino)ethyl)(phenyl)amino)methyl) benzonitrile] had an IC50 of 9.18 µM.

For `NCCN(C(=O)c1cc(Cl)ccc1Br)c1ccccc1Cl` [GT-7007, N-(2-aminoethyl)-2-bromo-5-chloro-N-(2-chlorophenyl) benzamide], the IC50 at iNOS [1] (Table C-1) and on iNOS [1] (Table C-2) was 0.0955 µM each time. For the same compound, the “Fold (GT-xxxx)/AZ 6b” value at iNOS [2] was 1.96.

On iNOS [1] (Table C-1), `N#Cc1ccc(Cl)cc1CN(CCNC[C@@H](O)CO)c1ccccc1` [GT-7016, (R)-4-chloro-2-(((2-((2,3-dihydroxypropyl)amino)ethyl)(phenyl)amino)methyl)benzonitrile] came in with an IC50 of 8.52 µM.

Consider `N#Cc1ccc(Cl)cc1C(=O)N(CCNCC1CC1)c1ccccc1` [GT-7019, 5-chloro-2-cyano-N-(2-((cyclopropylmethyl)amino)ethyl)-N-phenyl benzamide], for which the IC50 on iNOS [1] (Table C-1) and against iNOS [1] (Table C-2) was 0.438 µM each time. Besides, the “Fold (GT-xxxx)/AZ 6b” value on iNOS [2] stood at 8.98.

The compound `N#Cc1ccc(Cl)cc1C(=O)N(CCNC(CO)CO)c1ccccc1` [GT-7017, 5-chloro-2-cyano-N-(2-((1,3-dihydroxypropan-2-yl)amino)ethyl)-N-phenylbenzamide] yielded an IC50 against iNOS [1] (Table C-1) of 3.66 µM.

As for `Cc1ccc(C#N)c(O[C@H](CCN2CC[C@@H](O)C2)c2ccccc2)n1` [GT-5017, 2-((R)-3-((R)-3-hydroxypyrrolidin-1-yl)-1-phenylpropoxy)-6-methyl nicotinonitrile], on iNOS [1] (Table C-1), the IC50 amounted to 6.75 µM.

In turn, `Cc1ccc(C#N)c(O[C@H](CCN2CC[C@H](O)C2)c2ccccc2)n1` [GT-5016, 2-((R)-3-((S)-3-hydroxypyrrolidin-1-yl)-1-phenylpropoxy)-6-methyl nicotinonitrile] gave an IC50 on iNOS [1] (Table C-1) of 4.04 µM.

On iNOS [1] (Table C-1), `Cc1ccc(C#N)c(O[C@H](CCNC(C)(C)C)c2ccccc2)n1` [GT-5018, (R)-2-(3-(tert-butylamino)-1-phenylpropoxy)-6-methylnicotinonitrile] showed an IC50 of 5.04 µM.

Regarding `Cc1ccc(C#N)c(O[C@H](CCNC[C@@H](O)CO)c2ccccc2)n1` [GT-5025, 2-((R)-3-(((R)-2,3-dihydroxypropyl)amino)-1-phenylpropoxy)-6-methylnicotinonitrile], the IC50 on iNOS [1] (Table C-1) stood at 3.56 µM.

Turning to `NCCN(Cc1cc(Cl)ccc1Br)c1ccccc1Cl` [GT-7008, N1-(2-bromo-5-chlorobenzyl)-N1-(2-chlorophenyl)ethane-1,2-diamine hydrochloride], at iNOS [1] (Table C-1), it took 5.56 µM to reach half-maximal inhibition (IC50).

At iNOS [1] (Table C-1), `Cc1ccc(C#N)c(O[C@H](CCNCC2CC2)c2ccccc2)n1` [GT-5031, (R)-2-(3-((cyclopropylmethyl)amino)-1-phenylpropoxy)-6-methylnicotinonitrile] had an IC50 of 4.54 µM.

At iNOS [1] (Table C-1), `Cc1ccc(C#N)c(O[C@H](CCN)c2ccccc2)n1` [GT-5001, (R)-2-(3-amino-1-phenylpropoxy)-6-methylnicotinonitrile] displayed an IC50 of 1.59 µM.

`Cc1ccc(C#N)c(O[C@H](CCNCCO)c2ccccc2)n1` [GT-5014, (R)-2-(3-((2-hydroxyethyl)amino)-1-phenylpropoxy)-6-methylnicotinonitrile] gave a half-inhibitory concentration (IC50) against iNOS [1] (Table C-1) of 2.17 µM.

On to `Cc1ccc(C#N)c(O[C@H](CCNCCN(C)C)c2ccccc2)n1` [GT-5019, (R)-2-(3-((2-(dimethylamino)ethyl)amino)-1-phenylpropoxy)-6-methyl nicotinonitrile], for which inhibition at iNOS [1] (Table C-1) was half-maximal at 9.62 µM (IC50).
